According to the NIST ThermoML archive (doi:10.1016/j.fluid.2014.11.020):
± gives the expanded uncertainty stated by the source.

Assay: activity coefficient (dimensionless); of the first substance listed, at infinite dilution; xn = mol fraction of the nth substance listed
Conditions: Liquid, Chromatography, x1 = 0

Row | Structure (SMILES) | activity coefficient (323.15 K) | activity coefficient (333.15 K) | activity coefficient (343.15 K)
1 | CC1CCCC1 [methylcyclopentane] + CCCCCCCCn1cc[n+](COCCCOC[n+]2ccn(CCCCCCCC)c2C)c1C.N#C[N-]C#N.N#C[N-]C#N | 4.75 ± 0.32 | 4.7 ± 0.32 | 4.63 ± 0.32
2 | CCCCCCCCCCCC [dodecane] + CN(C)c1cc[n+](COCCCOC[n+]2ccc(N(C)C)cc2)cc1.O=S(=O)([N-]S(=O)(=O)C(F)(F)F)C(F)(F)F.O=S(=O)([N-]S(=O)(=O)C(F)(F)F)C(F)(F)F | 156 ± 11 | 137 ± 9.4 | 124 ± 8.5
3 | C1COCCO1 [1,4-dioxane] + CCCOC[n+]1ccn(Cc2ccccc2)c1.O=S(=O)([N-]S(=O)(=O)C(F)(F)F)C(F)(F)F | 0.4 ± 0.03 | 0.36 ± 0.03 | 0.35 ± 0.03
4 | CCCO [propan-1-ol] + Cn1cc[n+](COCCCOC[n+]2ccn(C)c2)c1.O=S(=O)([N-]S(=O)(=O)C(F)(F)F)C(F)(F)F.O=S(=O)([N-]S(=O)(=O)C(F)(F)F)C(F)(F)F | 1.43 ± 0.09 | 1.32 ± 0.09 | 1.19 ± 0.08
5 | c1ccsc1 [thiophene] + CN(C)c1cc[n+](COCCCOC[n+]2ccc(N(C)C)cc2)cc1.O=S(=O)([N-]S(=O)(=O)C(F)(F)F)C(F)(F)F.O=S(=O)([N-]S(=O)(=O)C(F)(F)F)C(F)(F)F | 0.55 ± 0.04 | 0.56 ± 0.04 | 0.57 ± 0.04
6 | Cc1ccccc1C [1,2-dimethylbenzene] + CCCOC[n+]1ccn(C)c1.F[B-](F)(F)F | 9.13 ± 0.62 | 8.97 ± 0.61 | 8.93 ± 0.61
7 | CCC(C)=O [butanone] + CCCOC[n+]1ccn(C)c1.N#C[N-]C#N | 1.27 ± 0.08 | 1.19 ± 0.08 | 1.12 ± 0.07
8 | CCC[N+](=O)[O-] [1-nitropropane] + CCCOC[n+]1ccn(Cc2ccccc2)c1.O=S(=O)([N-]S(=O)(=O)C(F)(F)F)C(F)(F)F | 0.53 ± 0.04 | 0.46 ± 0.04 | 0.47 ± 0.04
9 | CCC[N+](=O)[O-] [1-nitropropane] + Cn1cc[n+](COCCCOC[n+]2ccn(C)c2)c1.O=S(=O)([N-]S(=O)(=O)C(F)(F)F)C(F)(F)F.O=S(=O)([N-]S(=O)(=O)C(F)(F)F)C(F)(F)F | 0.54 ± 0.04 | 0.54 ± 0.04 | 0.53 ± 0.04
10 | c1ccncc1 [pyridine] + CCCOC[n+]1ccc(N(C)C)cc1.O=S(=O)([N-]S(=O)(=O)C(F)(F)F)C(F)(F)F | 0.43 ± 0.04 | 0.45 ± 0.04 | 0.46 ± 0.04
11 | Cc1ccc(C)cc1 [1,4-dimethylbenzene] + CCCOC[n+]1ccc(N(C)C)cc1.O=S(=O)([N-]S(=O)(=O)C(F)(F)F)C(F)(F)F | 1.38 ± 0.09 | 1.45 ± 0.1 | 1.45 ± 0.1
12 | CCCCCC [hexane] + CCCOC[n+]1ccn(Cc2ccccc2)c1.O=S(=O)([N-]S(=O)(=O)C(F)(F)F)C(F)(F)F | 7.52 ± 0.51 | 7.21 ± 0.49 | 6.92 ± 0.47
13 | CC(C)OC(C)C [diisopropyl ether] + CCCCCCCCn1cc[n+](COCCCOC[n+]2ccn(CCCCCCCC)c2C)c1C.N#C[N-]C#N.N#C[N-]C#N | 4.38 ± 0.3 | 4.07 ± 0.28 | 3.93 ± 0.27
14 | CCCCCCCC [octane] + CCCCCCCCn1cc[n+](COCCCOC[n+]2ccn(CCCCCCCC)c2C)c1C.N#C[N-]C#N.N#C[N-]C#N | 12.1 ± 0.82 | 11.4 ± 0.78 | 11.3 ± 0.77
15 | CCCCCCCCCCC [undecane] + CCCOC[n+]1ccn(C)c1.O=S(=O)([N-]S(=O)(=O)C(F)(F)F)C(F)(F)F | 89.7 ± 6.2 | 85.9 ± 5.9 | 75.3 ± 5.2
16 | C#CCCCC [1-hexyne] + CN(C)c1cc[n+](COCCCOC[n+]2ccc(N(C)C)cc2)cc1.O=S(=O)([N-]S(=O)(=O)C(F)(F)F)C(F)(F)F.O=S(=O)([N-]S(=O)(=O)C(F)(F)F)C(F)(F)F | 3 ± 0.2 | 2.96 ± 0.2 | 2.92 ± 0.2
17 | C[N+](=O)[O-] [nitromethane] + CCCCCCCCn1cc[n+](COCCC)c1C.O=S(=O)([N-]S(=O)(=O)C(F)(F)F)C(F)(F)F | 0.56 ± 0.04 | 0.52 ± 0.04 | 0.52 ± 0.04
18 | CCC[N+](=O)[O-] [1-nitropropane] + CCCOC[n+]1ccn(Cc2ccccc2)c1.F[B-](F)(F)F | 1.16 ± 0.07 | 1.12 ± 0.07 | 1.14 ± 0.07
19 | CC(C)O [propan-2-ol] + CCCOC[n+]1ccn(C)c1.F[B-](F)(F)F | 2.91 ± 0.2 | 2.7 ± 0.18 | 2.6 ± 0.18
20 | CCCCCCC [heptane] + CCCCCCCCn1cc[n+](COCCC)c1C.N#C[N-]C#N | 8.88 ± 0.61 | 8.18 ± 0.56 | 7.95 ± 0.54
21 | ClC(Cl)(Cl)Cl [tetrachloromethane] + CCCCCCCCn1cc[n+](COCCC)c1C.O=S(=O)([N-]S(=O)(=O)C(F)(F)F)C(F)(F)F | 1.21 ± 0.08 | 1.19 ± 0.08 | 1.24 ± 0.08
22 | CCCCCCCC [octane] + CCCOC[n+]1ccc(N(C)C)cc1.O=S(=O)([N-]S(=O)(=O)C(F)(F)F)C(F)(F)F | 22.2 ± 1.5 | 20.5 ± 1.4 | 17.7 ± 1.2

Row | Structure (SMILES) | activity coefficient (323.15 K) | activity coefficient (333.15 K) | activity coefficient (343.15 K)
23 | CC#N [acetonitrile] + CCCOC[n+]1ccn(C)c1.O=S(=O)([N-]S(=O)(=O)C(F)(F)F)C(F)(F)F | 0.46 ± 0.04 | 0.46 ± 0.04 | 0.46 ± 0.04
24 | CCCC(C)=O [pentan-2-one] + CCCOC[n+]1ccn(Cc2ccccc2)c1.O=S(=O)([N-]S(=O)(=O)C(F)(F)F)C(F)(F)F | 0.46 ± 0.04 | 0.42 ± 0.04 | 0.4 ± 0.03
25 | ClC(Cl)Cl [trichloromethane] + CCCOC[n+]1ccn(Cc2ccccc2)c1.N#C[N-]C#N | 0.62 ± 0.04 | 0.65 ± 0.04 | 0.69 ± 0.05
26 | CCCCCCC [heptane] + CN(C)c1cc[n+](COCCCOC[n+]2ccc(N(C)C)cc2)cc1.O=S(=O)([N-]S(=O)(=O)C(F)(F)F)C(F)(F)F.O=S(=O)([N-]S(=O)(=O)C(F)(F)F)C(F)(F)F | 28.9 ± 2 | 23.3 ± 1.6 | 24.3 ± 1.7
27 | CCCCCCCCCC [decane] + CCCOC[n+]1ccn(C)c1.O=S(=O)([N-]S(=O)(=O)C(F)(F)F)C(F)(F)F | 69.6 ± 4.8 | 60.5 ± 4.2 | 53 ± 3.6
28 | CCCCCCCCCCCCC [tridecane] + CCCOC[n+]1ccn(C)c1.F[B-](F)(F)F | 1640 ± 110 | 1630 ± 110 | 1630 ± 110
29 | CCC[N+](=O)[O-] [1-nitropropane] + CCCOC[n+]1ccc(N(C)C)cc1.O=S(=O)([N-]S(=O)(=O)C(F)(F)F)C(F)(F)F | 0.68 ± 0.05 | 0.69 ± 0.05 | 0.69 ± 0.05
30 | ClC(Cl)Cl [trichloromethane] + CCCCCCCCn1cc[n+](COCCC)c1C.N#C[N-]C#N | 0.27 ± 0.03 | 0.3 ± 0.03 | 0.33 ± 0.03
31 | CC(C)OC(C)C [diisopropyl ether] + CCCOC[n+]1ccn(Cc2ccccc2)c1.F[B-](F)(F)F | 17.6 ± 1.2 | 14.8 ± 1 | 
32 | CCCCCCCCCCC [undecane] + CCCOC[n+]1ccn(C)c1.F[B-](F)(F)F | 911 ± 63 | 883 ± 61 | 780 ± 54
33 | CCC(C)CC [3-methylpentane] + CCCOC[n+]1ccn(Cc2ccccc2)c1.N#C[N-]C#N | 28.5 ± 1.9 |  | 
34 | CC1CCCCC1 [methylcyclohexane] + Cn1cc[n+](COCCCOC[n+]2ccn(C)c2)c1.O=S(=O)([N-]S(=O)(=O)C(F)(F)F)C(F)(F)F.O=S(=O)([N-]S(=O)(=O)C(F)(F)F)C(F)(F)F | 21 ± 1.4 | 18.3 ± 1.2 | 
35 | CCCCCCCCC [nonane] + CCCOC[n+]1ccn(C)c1.O=S(=O)([N-]S(=O)(=O)C(F)(F)F)C(F)(F)F | 52.4 ± 3.6 | 45.9 ± 3.1 | 40.5 ± 2.8
36 | CCCCO [butan-1-ol] + CCCCCCCCn1cc[n+](COCCC)c1C.O=S(=O)([N-]S(=O)(=O)C(F)(F)F)C(F)(F)F | 5.47 ± 0.37 | 4.33 ± 0.3 | 4.28 ± 0.29
37 | CO [methanol] + N#C[N-]C#N.N#C[N-]C#N.c1ccc(Cn2cc[n+](COCCCOC[n+]3ccn(Cc4ccccc4)c3)c2)cc1 | 0.52 ± 0.04 | 0.51 ± 0.04 | 0.52 ± 0.04
38 | CCCO [propan-1-ol] + CCCOC[n+]1ccc(N(C)C)cc1.O=S(=O)([N-]S(=O)(=O)C(F)(F)F)C(F)(F)F | 1.93 ± 0.13 | 1.72 ± 0.12 | 1.53 ± 0.1
39 | CC(C)OC(C)C [diisopropyl ether] + CN(C)c1cc[n+](COCCCOC[n+]2ccc(N(C)C)cc2)cc1.O=S(=O)([N-]S(=O)(=O)C(F)(F)F)C(F)(F)F.O=S(=O)([N-]S(=O)(=O)C(F)(F)F)C(F)(F)F | 5.9 ± 0.4 | 5.72 ± 0.39 | 5.65 ± 0.39
40 | CCCCCCCCCCC [undecane] + CCCOC[n+]1ccn(Cc2ccccc2)c1.N#C[N-]C#N | 208 ± 14 | 175 ± 12 | 140 ± 9.6
41 | CC(C)O [propan-2-ol] + CCCCCCCCn1cc[n+](COCCCOC[n+]2ccn(CCCCCCCC)c2C)c1C.N#C[N-]C#N.N#C[N-]C#N | 0.4 ± 0.03 | 0.38 ± 0.03 | 0.38 ± 0.03
42 | CCCCCCCCCCC [undecane] + CCCOC[n+]1ccc(N(C)C)cc1.O=S(=O)([N-]S(=O)(=O)C(F)(F)F)C(F)(F)F | 55.7 ± 3.8 | 52.9 ± 3.6 | 46.6 ± 3.2
43 | Cc1ccccc1C [1,2-dimethylbenzene] + CCCOC[n+]1ccc(N(C)C)cc1.O=S(=O)([N-]S(=O)(=O)C(F)(F)F)C(F)(F)F | 1.24 ± 0.08 | 1.31 ± 0.09 | 1.33 ± 0.09
44 | C1CCCCC1 [cyclohexane] + CCCOC[n+]1ccn(Cc2ccccc2)c1.N#C[N-]C#N | 13.1 ± 0.9 | 12.3 ± 0.84 | 11.5 ± 0.79
